Results published in patent publication US20240373850A1, “Compositions comprising resinous exudate metabolites from plants of the genus Adesmia, used to control and treat infections in plant crops; and methods for controlling infections in plant crops” (PONTIFICIA UNIVERSIDAD CATÓLICA DE VALPARAÍSO, priority 2021, published 2024).
Values joined by “and” are separate entries in the source; they are usually repeats but may differ in a detail not shown here. Identical values can stand only once. Like-named read-outs stand apart in the source and are kept apart here.

Experiments:
[1] = tested on: Pseudomonas syringae pv actinidiae code 8.43; test: Antibacterial micro-dilution test (MIC), Psa 8.43; assay type: cell-based; details: read-out: MIC Psa 8.43
Experimental: (§1) Antibacterial test of secondary metabolites isolated from the resinous exudates of Adesmia plants against the pathogen (Psa), from isolates made in Chile and Italy, also tested on other bacteria of interest, in vitro.
(§2) All strains were cultivated in Nutrient culture medium supplemented with 3% sucrose (SNA), and incubated at 27° C. The bacterial inoculum was produced in Mueller-Hinton (MH) culture medium in glass test tubes and incubated at 27° C. in an orbital shaker at 150 rpm in the dark for 24 hours. A stock solution of each molecule was prepared to obtain a concentration of 2000 mg/L, later they were diluted in a 96-well microplate with MH culture medium and thus obtain the different concentrations of […] of each molecule. The antibacterial activity of the molecules was determined by the method of micro-dilution of the substance to be tested. Four controls were used: negative control (only MH liquid culture medium inoculated with bacteria); positive control (liquid MH culture medium adding Chloramphenicol at the same concentrations tested inoculated with bacteria and in the case of the Italian strain, copper sulfate was added), negative control (1) only substances plus solvent (liquid MH culture medium plus ethanol at 1% without inoculating bacteria) and a white control (only MH liquid culture medium, without inoculating). The bacterial suspension of each of the strains was adjusted to 0.5 McFarland (1×10^8 cfu/ml), inoculating 1.5 μL per well in the microplate and subsequently incubated at 27° C. for 24 hours.
(§3) The absorbances or optical density (O.D) were converted to percentage of antibacterial inhibition (PIAB) using the following formula:
(§4) In addition, […] aliquots of each of the concentrations were swept in a petri dish to observe the presence or absence of Psa colonies after 48 hours.

[2] = tested on: Pseudomonas syringae pv actinidiae code 770; test: Antibacterial micro-dilution test (MIC), Psa 770; assay type: cell-based; details: read-out: MIC Psa 770
Experimental: as §1, §2, §3, §4

[3] = tested on: Erwinia carotovora; test: Antibacterial micro-dilution test (MIC), E.c; assay type: cell-based; details: Pectobacterium carotovorum, read-out: MIC E.c
Experimental: as §1
(§5) All strains were cultivated in Nutrient culture medium supplemented with 3% sucrose (SNA), and incubated at 27° C. The bacterial inoculum was produced in Mueller-Hinton (MH) culture medium in glass test tubes and incubated at 27° C. in an orbital shaker at 150 rpm in the dark for 24 hours. A stock solution of each molecule was prepared to obtain a concentration of 2000 mg/L, later they were diluted in a 96-well microplate with MH culture medium and thus obtain the different concentrations of […] of each molecule. The antibacterial activity of the molecules was determined by the method of micro-dilution of the substance to be tested. […]
(§6) Through the evaluation of absorbance at 600 nm in an Accu Reader M965 spectrophotometer, those treatments that were effective in inhibiting growth compared to the negative control were selected, to subsequently quantify the percentage of inhibition. The absorbances or optical density (O.D) were converted to percentage of antibacterial inhibition (PIAB) using the following formula: […]

[4] = tested on: E. carotovora; test: Membrane integrity by Sytox Green staining, E. carotovora; assay type: cell-based, Erwinia carotovora; details: 50 ug/mL, 3 hours of incubation, fluorescence microscope
Experimental: FIG. 11: Effect of 2′, 4′ dihydroxychalcone on the integrity of the cell membrane of E. carotovora. The bacteria were incubated in a culture medium at 22 QC in the presence of 30% (v/v) ethanol (a), 5% methanol; 50 ug/mL of the compound against E. carotovora seen in bright field (b) and seen under fluorescence (c) for 3 hours of incubation.
(§7) Determination of the effect of compound 2 4′ dihydroxychalcone (compound No. 4) on the integrity of the membrane of Gram negative and Gram positive bacteria.
(§8) Because several studies have established that phenolic compounds destroy the bacterial membrane, the effect of the major compound […] (compound No. 4) present in the exudate of plants of the Adesmia genus was evaluated, which was attributes the antibacterial activity that they present against Pseudomonas syringae pv actinidiae (Psa). It was tested against Gram-negative bacteria of agricultural importance Erwinia carotovora by Sytox Green staining. […] In this way, through the observation of nuclei stained with Sytox in the fluorescence microscope (100×), it is evident that the mechanism of action of the compound against both the Gram positive bacteria S. aureus and Gram negative E. carotovora is the destruction of the plasma membrane (FIG. 11c).

[5] = tested on: Pseudomonas syringae pv actinidiae (Psa) 190770; test: In vivo antibacterial activity test in Kiwi seedlings, phytopathological evaluation; design: species or system Kiwi A. chinensis; details: 500 ug/mL
Text: In vivo antibacterial activity tests of the compounds of the present invention, in Kiwi crops.
It is important to point out that the Chilean patent application 0881-2018 of the same inventors of the present invention, describes a procedure to prepare a composition obtained from resinous exudates of the aerial parts of plants of the genus Adesmia, to control in vitro and in vivo infections. in plant crops. In addition, methods for controlling infections in plant crops are described, which comprise applying said composition to crops infected with various microorganisms. […] For this, Kiwi A. chinensis seedlings from in vitro propagation were used. The bacterium Pseudomonas syringae pv actinidiae (Psa) 190770 used in the in vitro tests was used. The plants were kept in aseptic chambers with 50% relative humidity, under controlled temperature conditions (20° C.±2) and a photoperiod regimen of 12 hours of light and 12 hours of darkness. Both the application of the treatments and inoculation were applied in the summer season. The bacterial inoculum was sprayed on the surface of the leaves of the plants, which had been subjected to small wounds on the leaves. […] Control plants were only sprayed with sterile distilled water and kept isolated from the others treated with Psa.
(§9) The evaluations were made periodically to observe the symptoms of the plant (Table No. 4) and the samples were taken at the third and fourth week from the inoculation, in which the leaves were collected at the moment of beginning to see symptoms or in their defect a month after starting the trial, they were frozen in RNALater® and stored at −80° C. for RNA isolation.

[6] = tested on: Bacillus subtilis; test: Antibacterial micro-dilution test (MIC), B.s; assay type: cell-based; details: read-out: MIC B.s
Experimental: as §1, §2, §6

[7] = tested on: Pseudomonas syringae pv actinidiae (Psa); test: Absolute quantification of Psa infecting kiwi plants by qRT-PCR; assay type: in vivo, Kiwi A. chinensis; details: leaves, 3-4 weeks after inoculation, replicate runs; listed as Treatment 3
Experimental: as §9
For this, the total RNA of the problem samples was isolated from 80 to 100 mg of tissue from the leaves of A. chinensis belonging to the applied treatments, which were extracted with the E.Z.N.A.® PLANT RNA Kit using the protocol for difficult samples described by the manufacturer and the concentration of the extracted material was quantified through the Nanodrop equipment. The qRT-PCR was performed using the AriaMx Realtime PCR System equipment, using the Takion Sybrgreen+One step converter kit and specific primers synthesized by IDT (Integrated DNA Technologies) (See Table 6).
The program conditions were 48° C. for 10 min, 95° C. for 3 min, followed by 40 cycles of 95° C. for 10 sec, alignment and extension at 60° C. for 50 sec; then the melting curves 95° C. for 30 sec., 65° C. for 30 sec., and 95° C. for 30 sec. […] The number of copies/ng of Total Psa RNA were calculated through the equation of the straight line provided by the equipment, which was analyzed with the standard curve included in each qRT-PCR run.

[8] = tested on: S. aureus; test: Membrane integrity by Sytox Green staining, S. aureus; assay type: cell-based; details: 50 ug/mL, 3 hours of incubation, fluorescence microscope
Experimental: as §7, §8

[9] = tested on: Pseudomonas syringae syringae; test: Antibacterial micro-dilution test (MIC), Pss; assay type: cell-based; details: MH medium, 27° C., 24 hours
Experimental: as §1, §5, §6

[10] = micro-dilution, MH medium, 27° C., 24 hours

Row | SMILES | MIC ([1]; 24 h) [µg/mL] | MIC ([2]; 24 h) [µg/mL] | MIC [1, 10] [µg/mL] | MIC [6, 10] [µg/mL] | MIC [2, 10] [µg/mL] | MIC [9] [µg/mL] | further results
1 | CC(C)=CCc1cc(C(=O)CCc2ccccc2)c(O)cc1O [Compound 1] | ≥ 200 | ≥ 400 |  |  |  |  | 
2 | CC(C)=CCc1c(O)cc(O)c2c1O[C@H](c1ccccc1)CC2=O [Compound 2, glabranin] |  | ≥ 400 |  |  |  |  | 
3 | CC(C)=CCc1c(O)ccc(C(=O)/C=C/c2ccccc2)c1O [Compound 3, isochordine] |  | ≥ 1600 |  |  |  |  | 
4 | O=C(/C=C/c1ccccc1)c1ccc(O)cc1O [Compound 4, 2′,4′-dihydroxychalcone] | ≥ 50 | ≥ 200 |  |  |  |  | MIC ([3]; 24 h): ≥ 10 µg/mL; effect on the integrity of the plasmatic membrane [4]: alteration of the plasmatic membrane was observed; in vivo inhibition of the disease caused by Psa in Kiwi cultures [5]: in vivo inhibition of the disease; plants without visual symptoms of the disease (level 0, healthy plants) ([5]; preventive treatment): 60%; Percentage of incidence ([5]; preventive, sprayed 24 hours before inoculation): 40%; Level of Incidence according to category (Maximum value 3) ([5]; preventive, sprayed 24 hours before inoculation, damage scale 0-3 of Table No. 4): 0.4; MIC ([6]; 24 h): ≥ 10 µg/mL; Ct [7]: 29.17 and 27.80 and 30.01; effect on the integrity of the plasmatic membrane [8]: alteration of the plasmatic membrane was observed
5 | COc1ccc(C(=O)CCc2ccccc2)c(OC)c1 [Compound 9, 2′,4′-dimethoxydihydrochalcone] |  |  | ≥ 1600 | ≥ 10 | ≥ 400 | ≥ 50 | MIC [3, 10]: ≥ 10 µg/mL
6 | O=C(/C=C/c1ccccc1)c1c(O)cc(O)cc1O [Compound 10, 2′,4′, 6′-trihydroxy chalcone] |  |  | ≥ 50 | ≥ 10 | ≥ 50 | ≥ 50 | 
